Laboratory results taken from US12133922B2, “Abuse resistant capsule” (R.P. Scherer Technologies, LLC, priority 2013, dated 2024).
Where a name gives a salt, the structure may show the parent alone.

Assay: aqueous, methanol and acidic extraction of capsule fill, assay by HPLC
Type: physicochemical
Description: In order to ascertain the resistance to aqueous and acidic extraction, the fill mass of 10 capsules was mixed with different amounts of purified water (5 mL/caps. and 10 mL/caps.) and extracted for 1, 3 or 5 days. Further, the fill mass of 10 capsules was mixed with 20 mL of methanol and was extracted for 3 days.
The fill mass of 10 capsules of Formulation A or Formulation B was mixed with 20 mL of 0.1 N hydrochloric acid and extracted for one day. Comparison solutions of Pseudoephedrine HCl (labeled as API in the table below) were prepared. After an extraction of the formulation/solvent mixture, the mixtures were centrifugated and the assay of pseudoephedrine HCl was analyzed by HPLC. Even after centrifugation the solutions were turbid. The results were normalized to a capsule containing 1164.8 mg of pseudoephedrine HCl.

## CN[C@@H](C)[C@@H](O)c1ccccc1 [API, Pseudoephedrine HCl]
Comparison solution, 1 day, 50 mL water
  Calculated Mass of recoverable Pseudoephedrine HCl: 1026.0 mg
Comparison solution, 3 days, 50 mL water
  Calculated Mass of recoverable Pseudoephedrine HCl: 1243.7 mg
Comparison solution, 5 days, 50 mL water
  Calculated Mass of recoverable Pseudoephedrine HCl: 1227.7 mg
Extraction 1 day, 20 mL HCl 0.1 mol/L with neutralisation
  Calculated Mass of recoverable Pseudoephedrine HCl: 1197.3 mg
Extraction 1 day, 20 mL HCl 0.1 mol/L without neutralisation
  Calculated Mass of recoverable Pseudoephedrine HCl: 1054.7 mg
Extraction 3 days, 20 mL methanol
  Calculated Mass of recoverable Pseudoephedrine HCl: 1165.6 mg
